Test results as given in US12697343B2, “Intravenous istaroxime for the treatment of acute heart failure” (Seismic Pharmaceuticals Operations LLC, priority 2021, dated 2026).
Where a name gives a salt, the structure may show the parent alone.

Columns and labels:
[1] = tested on: patients hospitalized for acute heart failure (AHF); test: NT-proBNP serial measurements (Elecsys proBNP II); type: in vivo, human
Procedure: (§1) The primary efficacy endpoint was the change from baseline to 24 h after the start of the infusion in the E/e ratio assessed by tissue Doppler echocardiography. Secondary endpoints included the change from baseline to 24 h of other echocardiography parameters: LVEF, left ventricular end-systolic and end-diastolic volumes, stroke volume index, E, A, E/A ratio, and S′: changes in dyspnoea by visual analogue scale (VAS) and in NT-proBNP from baseline to 24 h: proportion of patients with hospital readmissions or emergency visits for cardiovascular reasons by day 30; proportion of patients with episodes of in-hospital worsening heart failure to day 4, and length of stay. In-hospital worsening heart failure was defined by the need to increase the dose or reinitiate intravenous therapy with diuretics and/or other inotropic agents to day 4. Safety endpoints were assessed throughout the study and included: incidence of adverse events (AEs): change in vital signs and in 12-lead electrocardiographic (ECG) parameters: incidence of clinically or haemodynamically significant episodes of supraventricular or ventricular arrhythmias detected by continuous ECG monitoring: standard laboratory parameters: renal function: cardiac troponin T (cTnT): incidence of cTnT elevations, and mortality at day 30. Elevations in cTnT were considered significant if they were >50% or >20% from baseline values, for patients with cTnT below or above the 99% upper reference limit at baseline, respectively.
The study design included a 24 h screening period, a 24 h study drug infusion phase (day 1), a post-treatment phase (days 2-4), and a follow-up visit at day 30 (FIG. 5). Patients could be enrolled at any time after admission. The use of oral medications was permitted during the study with the exception of digoxin. Intravenous diuretics were permitted during the treatment period at stable doses, unless changes were required due to clinically relevant variations of the patient's condition. If treatment with an inotrope was clinically necessary during the infusion period, the investigational product was discontinued. Echocardiography was performed according to international standards at screening, baseline (just before starting study drug infusion), 6, 24 h (just before infusion end), and 48 h after infusion start. Echocardiographic measurements at baseline, 6, 24, and 48 h were evaluated in a blinded fashion by a CoreLab located at the University and Civil Hospital of Brescia, Italy. E/e′ ratio was calculated as the ratio between the peak early diastolic mitral flow velocity (E wave) and the mean of the annular lateral (e′ lateral) and septal (e′ septal) velocities, according to standard guidelines.^20 Intraobserver and interobserver variability in E/e′ measurement was tested on the 15% of the recordings and is shown in FIG. 6. Self-reported dyspnoea was assessed using a 100 mm VAS, with zero representing the worst level of dyspnoea and […] the best breathing condition. Twenty-four hour ECG monitoring was performed using a three-lead device (Mortara industries, Milwaukee, WI, USA) during the day of screening, the infusion period, and the day after (the latter was optional). Analysis was conducted by a blinded CoreLab (ICS Maugeri, Italy). Serial measurements of NT-proBNP throughout the study were analyzed by a central laboratory (Elecsys® proBNP II, Roche®, Basel, Switzerland). Samples for cTnT were taken at baseline, 3, 6, 12, 24, 48, and 72 h and on day 30, and were analyzed by a core laboratory (Elecsys® high-sensitivity assay, Roche®, Basel, Switzerland). AEs were monitored throughout the duration of the study.
The study was designed as a mechanistic and safety study to assess the effects of a 24 h istaroxime infusion in patients hospitalized for AHF. […]

[2] = tested on: patients hospitalized for acute heart failure (AHF); test: Vital signs (systolic blood pressure, heart rate) during and after 24 h infusion; type: in vivo, human
Excerpt: This study was a phase II, multicenter, randomized, double-blind, placebo-controlled, parallel group investigation, conducted at two sites in Italy and eight sites in China. All patients provided written informed consent. The study was approved by country regulatory authorities and by local institutional review boards. The trial is registered in the European Clinical Trials Database (EudraCT 2013-000540-26) and ClinicalTrials.gov (NCT02617446).
Patients were randomized 2:1 to istaroxime or placebo 24 h infusion and were enrolled in two sequential cohorts, the first with an istaroxime dose of 0.5 μg/kg/min and the second with an istaroxime dose of 1.0 μg/kg/min. At the end of cohort 1 enrollment, an independent Data Safety and Monitoring Board conducted an interim safety analysis of unblinded data before proceeding to cohort 2 enrollment. Inclusion criteria were: age ≥18 years, an ongoing hospitalization for AHF with dyspnoea at rest or minimal exertion and need for intravenous diuretic therapy (40 mg intravenous furosemide), SBP between 90 and 125 mmHg without signs or symptoms of peripheral hypoperfusion: LVEF ≤40%: intermediate to high E/e′ ratio by tissue Doppler echocardiography (10); brain natriuretic peptide (BNP) or N-terminal pro BNP (NT-proBNP) plasma levels ≥350 pg/mL or ≥1400 pg/mL, respectively, and presence of adequate echocardiographic windows. The main exclusion criteria were: concomitant or planned treatment with intravenous vasodilators, inotropes or vasopressors: treatment with oral digoxin (patients treated with digoxin within the last week could be randomized if the plasma concentration at screening was 0.5 ng/mL); acute coronary syndrome or stroke within the past 3 months: coronary artery bypass graft or percutaneous coronary intervention within the past month or planned in the next month: resting HR >120 bpm or <50 bpm: life-threatening ventricular arrhythmia or implantable cardioverter-defibrillator shock within the past month: fever 38° C.; serum creatinine 3.0 mg/dL or estimated glomerular filtration rate (eGFR) 30 mL/min/m2; serum potassium 5.3 mmol/L or 3.8 mmol/L; severe hepatic dysfunction.
as §1
The study design included a 24 h screening period, a 24 h study drug infusion phase (day 1), a post-treatment phase (days 2-4), and a follow-up visit at day 30 (FIG. 5). Patients could be enrolled at any time after admission. The use of oral medications was permitted during the study with the exception of digoxin. […]

[3] = tested on: patients hospitalized for acute heart failure (AHF); conditions: 1.0 μg/kg/min group; Carubelli et al.; cited from earlier work

C[C@]12CCC(=NOCCN)C[C@@H]1C(=O)C[C@@H]1[C@@H]2CC[C@]2(C)C(=O)CC[C@@H]12 [Istaroxime, (E,Z)-3-((2-aminoethoxy)imino)androstane-6,17-dione hydrochloride]
NT-proBNP, median change from baseline ([1]; 0.5 μg/Kg/min, 24 hours): 120 pg/mL
NT-proBNP, median change from baseline ([1]; 0.5 μg/Kg/min, 48 hours): -431 pg/mL
NT-proBNP, median change from baseline ([1]; 0.5 μg/Kg/min, 72 hours): -802 pg/mL
NT-proBNP, median change from baseline ([1]; 1.0 μg/Kg/min, 24 hours): -214 pg/mL
NT-proBNP, median change from baseline ([1]; 1.0 μg/Kg/min, 48 hours): -563 pg/mL
NT-proBNP, median change from baseline ([1]; 1.0 μg/Kg/min, 72 hours): -528 pg/mL
HR mean change from baseline ([2]; 0.5 μg/Kg/min, 3 hours): −4.21 bpm
SBP mean change from baseline ([2]; 0.5 μg/Kg/min, 3 hours): 1.49 mmHg
HR mean change from baseline ([2]; 0.5 μg/Kg/min, 6 hours): −3.51 bpm
SBP mean change from baseline ([2]; 0.5 μg/Kg/min, 6 hours): 2.92 mmHg
HR mean change from baseline ([2]; 0.5 μg/Kg/min, 12 hours): −4.59 bpm
SBP mean change from baseline ([2]; 0.5 μg/Kg/min, 12 hours): 3.13 mmHg
HR mean change from baseline ([2]; 0.5 μg/Kg/min, 24 hours): −3.26 bpm
SBP mean change from baseline ([2]; 0.5 μg/Kg/min, 24 hours): 2.82 mmHg
HR mean change from baseline ([2]; 0.5 μg/Kg/min, 48 hours): −0.37 bpm
SBP mean change from baseline ([2]; 0.5 μg/Kg/min, 48 hours): −3.10 mmHg
HR decreased from baseline by ([2]; 0.5 μg/kg/min): about 3 bpm
SBP increased from baseline by ([2]; 0.5 μg/kg/min): about 3 mmHg
HR mean change from baseline ([2]; 1.0 μg/Kg/min, 3 hours): −10.61 bpm
SBP mean change from baseline ([2]; 1.0 μg/Kg/min, 3 hours): 7.63 mmHg
HR mean change from baseline ([2]; 1.0 μg/Kg/min, 6 hours): −8.89 bpm
SBP mean change from baseline ([2]; 1.0 μg/Kg/min, 6 hours): 8.08 mmHg
HR mean change from baseline ([2]; 1.0 μg/Kg/min, 12 hours): −9.49 bpm
SBP mean change from baseline ([2]; 1.0 μg/Kg/min, 12 hours): 9.00 mmHg
HR mean change from baseline ([2]; 1.0 μg/Kg/min, 24 hours): −9.61 bpm
SBP mean change from baseline ([2]; 1.0 μg/Kg/min, 24 hours): 6.11 mmHg
HR mean change from baseline ([2]; 1.0 μg/Kg/min, 48 hours): 3.86 bpm
SBP mean change from baseline ([2]; 1.0 μg/Kg/min, 48 hours): −1.73 mmHg
SBP increased from baseline by ([2]; 1.0 μg/kg/min, significant vs. placebo at 3 to 12 h): 6-8 mmHg
HR decreased from baseline by ([2]; 1.0 μg/kg/min, significant vs. placebo at 3 to 24 h): 8-9 bpm
Serious adverse events, percent [3]: 15%
